{
  "source": "EPA's ToxRefDB 2",
  "key": {"dog": {"test_system": "dog", "conditions": "Subchronic oral toxicity in nonrodent, beagle, Feed, dose end: 52 week, group: systemic, systemic / clinical chemistry / albumin / albumin + systemic / clinical chemistry / cholesterol / cholesterol + systemic / clinical …"}, "rabbit": {"test_system": "rabbit", "conditions": "Prenatal developmental toxicity study, himalayan, Oral, Gavage/Intubation, dose end: 28 GD"}, "mouse": {"test_system": "mouse", "conditions": "Subchronic oral toxicity in rodents, b6c3f1, Feed, dose end: 91 day, group: systemic"}, "rat [1]": {"test_system": "rat", "conditions": "Prenatal developmental toxicity study, wistar, Oral, Gavage/Intubation, dose end: 19 GD"}, "rat [2]": {"test_system": "rat", "conditions": "Multigenerational reproductive toxicity study, wistar (Chbb = THOM-SPF), Oral, Feed, dose end: 1 generation"}, "rat [3]": {"test_system": "rat", "conditions": "Combined chronic toxicity/carcinogenicity; wistar; Oral; Feed; dose end: 104 week; group: systemic; systemic / in life observation / body weight / body weight + systemic / in life observation / body weight / body weight gain + systemic / …"}, "rat [4]": {"test_system": "rat", "conditions": "Subchronic oral toxicity in rodents, wistar, Feed, dose end: 3 month"}, "[5]": {"conditions": "group: developmental, developmental / developmental malformation / bone / absent"}, "[6]": {"conditions": "group: maternal, reproductive / reproductive performance / postimplantation loss / postimplantation loss + reproductive / reproductive performance / …"}, "[7]": {"conditions": "group: maternal, systemic / in life observation / body weight / body weight gain + systemic / in life observation / food consumption / food consumption + …"}, "[8]": {"conditions": "systemic / clinical chemistry / triglycerides / triglycerides + systemic / clinical chemistry / urea nitrogen / urea + systemic / in life …"}, "[9]": {"conditions": "systemic / pathology microscopic / stomach / erosion"}, "[10]": {"conditions": "group: developmental, developmental / developmental malformation / bone / cervical + developmental / developmental malformation / kidney / dilated renal pelvis"}, "[11]": {"conditions": "group: maternal, systemic / in life observation / body weight / body weight + systemic / in life observation / body weight / body weight gain + systemic / in…"}, "[12]": {"conditions": "group: offspring, systemic / in life observation / body weight / offspring (pup) weight"}, "[13]": {"conditions": "group: parental, systemic / in life observation / body weight / body weight + systemic / in life observation / body weight / body weight gain + systemic / in…"}, "[14]": {"conditions": "group: cholinesterase, cholinesterase / cholinesterase / cholinesterase / cholinesterase (che)"}, "[15]": {"conditions": "group: systemic, systemic / in life observation / body weight / body weight + systemic / in life observation / body weight / body weight gain + systemic / in…"}},
  "data": [
    {"smiles": "COC(=O)N(OC)c1ccccc1COc1ccn(-c2ccc(Cl)cc2)n1", "note": "[Pyraclostrobin]", "values": [
      {"measurement": "LEL", "setting": "dog", "value": 10.8, "unit": "mg/kg/day"},
      {"measurement": "LOAEL", "setting": "dog", "value": 10.8, "unit": "mg/kg/day"},
      {"measurement": "NEL", "setting": "dog", "value": 5.4, "unit": "mg/kg/day"},
      {"measurement": "NOAEL", "setting": "dog", "value": 5.4, "unit": "mg/kg/day"},
      {"measurement": "LEL", "setting": "rabbit; [5]", "value": 20, "unit": "mg/kg/day"},
      {"measurement": "LOAEL", "setting": "rabbit; [5]", "value": "> 20", "unit": "mg/kg/day"},
      {"measurement": "NEL", "setting": "rabbit; [5]", "value": 10, "unit": "mg/kg/day"},
      {"measurement": "NOAEL", "setting": "rabbit; [5]", "value": "≥ 20", "unit": "mg/kg/day"},
      {"measurement": "LOAEL", "setting": "rabbit; [6]", "value": 10, "unit": "mg/kg/day"},
      {"measurement": "NOAEL", "setting": "rabbit; [6]", "value": 5, "unit": "mg/kg/day"},
      {"measurement": "LEL", "setting": "rabbit; [7]", "value": 5, "unit": "mg/kg/day"},
      {"measurement": "NEL", "setting": "rabbit; [7]", "value": "< 5", "unit": "mg/kg/day"},
      {"measurement": "LOAEL", "setting": "mouse; [8]", "value": 30.4, "unit": "mg/kg/day"},
      {"measurement": "NOAEL", "setting": "mouse; [8]", "value": 9.2, "unit": "mg/kg/day"},
      {"measurement": "LEL", "setting": "mouse; [9]", "value": 12.9, "unit": "mg/kg/day"},
      {"measurement": "NEL", "setting": "mouse; [9]", "value": "< 12.9", "unit": "mg/kg/day"},
      {"measurement": "LEL", "setting": "rat [1]; [10]", "value": 50, "unit": "mg/kg/day"},
      {"measurement": "LOAEL", "setting": "rat [1]; [10]", "value": 50, "unit": "mg/kg/day"},
      {"measurement": "NEL", "setting": "rat [1]; [10]", "value": 25, "unit": "mg/kg/day"},
      {"measurement": "NOAEL", "setting": "rat [1]; [10]", "value": 25, "unit": "mg/kg/day"},
      {"measurement": "LEL", "setting": "rat [1]; [11]", "value": 25, "unit": "mg/kg/day"},
      {"measurement": "LOAEL", "setting": "rat [1]; [11]", "value": 25, "unit": "mg/kg/day"},
      {"measurement": "NEL", "setting": "rat [1]; [11]", "value": 10, "unit": "mg/kg/day"},
      {"measurement": "NOAEL", "setting": "rat [1]; [11]", "value": 10, "unit": "mg/kg/day"},
      {"measurement": "LEL", "setting": "rat [2]; [12]", "value": 20.5, "unit": "mg/kg/day"},
      {"measurement": "LOAEL", "setting": "rat [2]; [12]", "value": 20.5, "unit": "mg/kg/day"},
      {"measurement": "NEL", "setting": "rat [2]; [12]", "value": "< 20.5", "unit": "mg/kg/day"},
      {"measurement": "NOAEL", "setting": "rat [2]; [12]", "value": "< 20.5", "unit": "mg/kg/day"},
      {"measurement": "LOAEL", "setting": "rat [2]; group: parental, systemic / in life observation / body weight / body weight + systemic / in life observation / body weight / body weight gain", "value": 39.9, "unit": "mg/kg/day"},
      {"measurement": "LEL", "setting": "rat [2]; [13]", "value": 39.9, "unit": "mg/kg/day"},
      {"measurement": "NEL", "setting": "rat [2]; [13]", "value": 20.5, "unit": "mg/kg/day"},
      {"measurement": "NOAEL", "setting": "rat [2]; [13]", "value": 20.5, "unit": "mg/kg/day"},
      {"measurement": "LEL", "setting": "rat [3]", "value": 9.2, "unit": "mg/kg/day"},
      {"measurement": "LOAEL", "setting": "rat [3]", "value": 9.2, "unit": "mg/kg/day"},
      {"measurement": "NEL", "setting": "rat [3]", "value": 3.4, "unit": "mg/kg/day"},
      {"measurement": "NOAEL", "setting": "rat [3]", "value": 3.4, "unit": "mg/kg/day"},
      {"measurement": "LEL", "setting": "rat [4]; [14]", "value": 79.7, "unit": "mg/kg/day"},
      {"measurement": "LOAEL", "setting": "rat [4]; [14]", "value": "> 119", "unit": "mg/kg/day"},
      {"measurement": "NEL", "setting": "rat [4]; [14]", "value": 40.8, "unit": "mg/kg/day"},
      {"measurement": "NOAEL", "setting": "rat [4]; [14]", "value": "≥ 119", "unit": "mg/kg/day"},
      {"measurement": "LOAEL", "setting": "rat [4]; [15]", "value": 34.7, "unit": "mg/kg/day"},
      {"measurement": "NEL", "setting": "rat [4]; [15]", "value": 3.5, "unit": "mg/kg/day"},
      {"measurement": "NOAEL", "setting": "rat [4]; [15]", "value": 10.7, "unit": "mg/kg/day"},
      {"measurement": "LEL", "setting": "rat [4]; group: systemic, systemic / pathology microscopic / spleen / histiocytosis", "value": 10.7, "unit": "mg/kg/day"}
    ]}
  ]
}
